In the RepoRT retention time repository one finds LC retention time data, which are given here for 83 compounds.

Counter-ions that a name gives are not always drawn.

This data set can be described thus: HILIC, Merck SeQuant ZIC-HILIC, 25 °C, 0.25 mL/min; A: water + 16 mM ammonium formate; B: acetonitrile + 0.1% formic acid, pH 3; gradient (min/%B) 0/97 2/97 10/70 15/10 17/10 18/97 25/97. To be noted: stereoisomer not certain.
In the case of `O=C(O)C(=O)Cc1ccccc1` [PHENYLPYRUVATE], the LC retention time was 2.18 min.
As for `C=C(OP(=O)(O)O)C(=O)[O-]` [PHOSPHOENOLPYRUVATE], the LC retention time is 14.7 min.
For the compound `O=C(O)CP(=O)(O)O` [PHOSPHONOACETATE], the LC retention time is 14.3 min.
Then `O=P(O)(O)OCC1OC(OP(=O)(O)OP(=O)(O)O)C(O)C1O` (stereo not drawn) [PHOSPHORIBOSYL PYROPHOSPHATE], with 15.7 min; and `C[N+](C)(C)CCOP(=O)(O)O` [PHOSPHORYLCHOLINE], with 15.6 min.
With `CC(=CCC1=C(C)C(=O)c2ccccc2C1=O)CCCC(C)CCCC(C)CCCC(C)C` (stereo not drawn) [PHYLLOQUINONE], the LC retention time stood at 1.49 min.
Then `C=Cc1c(C)c2cc3[nH]c(cc4nc(cc5nc(cc1[nH]2)C(C)=C5CCC(=O)O)C(CCC(=O)O)=C4C)c(C)c3C=C` [PROTOPORPHYRIN], with 1.81 min.
With `NCCCCN` [PUTRESCINE], the LC retention time is 17.4 min.
Next, `Cc1ncc(COP(=O)(O)O)c(C=O)c1O` [PYRIDOXAL-PHOSPHATE]: 11.8 min; `Cc1ncc(CO)c(C=O)c1O` [PYRIDOXAL]: 8.23 min; `Cc1ncc(CO)c(CN)c1O` [PYRIDOXAMINE]: 14.6 min.
Take `Cc1ncc(CO)c(CO)c1O` [PYRIDOXINE]: the LC retention time was determined as 10.4 min.
Then `O=C(O)c1ccc[nH]1` [PYRROLE-2-CARBOXYLATE], with 2.08 min; and `O=C(O)c1cccc[n+]1[O-]` [Picolinic acid N-oxide], with 1.9 min.
Take `CC(=O)C1CCC2C3CCC4=CC(=O)CCC4(C)C3CCC12C` (stereo not drawn) [Progesterone]: the LC retention time was 1.58 min.
Then `O=C(O)c1cccnc1C(=O)O` [QUINOLINATE], with 8.88 min; and `c1ccc2ncccc2c1` [QUINOLINE], with 2.14 min.
Next, `O=c1c(OC2OC(CO)C(O)C(O)C2O)c(-c2ccc(O)c(O)c2)oc2cc(O)cc(O)c12` [Quercetin-3-beta-D-glucoside]: 9.37 min; `OCC1OC(OCC2OC(OC3(CO)OC(CO)C(O)C3O)C(O)C(O)C2O)C(O)C(O)C1O` (stereo not drawn) [RAFFINOSE]: 14.6 min; `CC(=O)Oc1cccc(O)c1` [RESORCINOL MONOACETATE]: 1.71 min.
`O=C(C=Cc1ccc(O)c(O)c1)OC(Cc1ccc(O)c(O)c1)C(=O)O` (stereo not drawn) [ROSMARINATE]: the LC retention time is 8.82 min.
Next, `C[S+](CCC(N)C(=O)[O-])CC1OC(n2cnc3c(N)ncnc32)C(O)C1O` (stereo not drawn) [S-ADENOSYLMETHIONINE]: 15.9 min; `NC(CSCC(=O)O)C(=O)O` (stereo not drawn) [S-CARBOXYMETHYLCYSTEINE]: 14.4 min.
Then `NC(=O)c1ccccc1O` [SALICYLAMIDE], with 1.74 min; and `O=C(O)c1ccccc1O` [SALICYLATE], with 1.81 min.
`CC1NCCc2cc(O)c(O)cc21` (stereo not drawn) [SALSOLINOL]: the LC retention time amounted to 11.1 min.
Then `CNCC(=O)O` [SARCOSINE], with 13.6 min.
On to `NCC[Se][Se]CCN` [SELENOCYSTAMINE], for which the LC retention time came out at 16.9 min.
Consider `CC=CC=CC(=O)O` [SORBATE], for which the LC retention time was found to be 1.8 min.
On to `NCCCCNCCCN` [SPERMIDINE], for which the LC retention time stood at 19.5 min.
As to `CCCCCCCCCCCCCCCC(O)C(N)CO` (stereo not drawn) [SPHINGANINE], the LC retention time is 9.91 min.
As for `CCCCCCCCCCCCCC=CC(O)C(COP(=O)([O-])OCC[N+](C)(C)C)NC(=O)CCCCCCCCCCCCCCCCC` (stereo not drawn) [SPHINGOMYELIN], the LC retention time was 10.8 min.
Next, `OCC1OC(OCC2OC(OCC3OC(OC4(CO)OC(CO)C(O)C4O)C(O)C(O)C3O)C(O)C(O)C2O)C(O)C(O)C1O` (stereo not drawn) [STACHYOSE]: 15.1 min.
Then `CCCCCCCCCCCCCCCCCC(=O)O` [STEARATE], with 1.56 min; and `O=C(O)CCCCCCC(=O)O` [SUBERATE], with 1.91 min; and `O=C(O)CCCCCCCCC(=O)O` [Sebacic acid], with 1.88 min.
For the compound `O=C(O)C(O)C(O)C(=O)O` (stereo not drawn) [TARTRATE D], the LC retention time stood at 14.2 min.
For `Cc1ncc(C[n+]2csc(CCOP(=O)(O)O)c2C)c(N)n1` [THIAMINE MONOPHOSPHATE], the LC retention time turned out to be 16.4 min.
Then `Cc1ncc(C[n+]2csc(CCOP(=O)([O-])OP(=O)(O)O)c2C)c(N)n1` [THIAMINE PYROPHOSPHATE], with 16.5 min; and `Cc1ncc(C[n+]2csc(CCO)c2C)c(N)n1` [THIAMINE], with 14.3 min.
Then `NC(N)=S` [THIOUREA], with 5.07 min; and `Cc1cn(C2CC(O)C(CO)O2)c(=O)[nH]c1=O` (stereo not drawn) [THYMIDINE], with 2.17 min; and `Cc1c[nH]c(=O)[nH]c1=O` [THYMINE], with 2.14 min.
Then `NC(=O)C1CCCN1C(=O)C(Cc1cnc[nH]1)NC(=O)C1CCC(=O)N1` (stereo not drawn) [THYROTROPIN RELEASING HORMONE], with 13.3 min; and `OC1CCCCC1O` (stereo not drawn) [TRANS-CYCLOHEXANEDIOL], with 1.85 min; and `OCC1OC(OC2OC(CO)C(O)C(O)C2O)C(O)C(O)C1O` (stereo not drawn) [TREHALOSE], with 14.1 min.
Consider `CCCCCCCCCCCCCCCCCCCCCCC(=O)[O-]` [TRICOSANOATE], for which the LC retention time is 1.53 min.
As to `C[n+]1cccc(C(=O)[O-])c1` [TRIGONELLINE], the LC retention time amounted to 13 min.
For `NCCc1c[nH]c2ccccc12` [TRYPTAMINE], the LC retention time was 10.5 min.
Then `NC(Cc1c[nH]c2ccccc12)C(=O)O` (stereo not drawn) [TRYPTOPHAN], with 11.4 min.
Consider `NCCc1ccc(O)cc1` [TYRAMINE], for which the LC retention time was found to be 11.3 min.
With `O=C/C=C/c1ccccc1` [Trans-Cinnamaldehyde], the LC retention time is 1.57 min.
Take `O=C(O)CC(CC(=O)O)C(=O)O` [Tricarballylic acid]: the LC retention time was 9.58 min.
Then `O=c1cc[nH]c(=O)[nH]1` [URACIL], with 2.24 min; and `O=c1[nH]c(=O)c2[nH]c(=O)[nH]c2[nH]1` [URATE], with 11.2 min; and `O=c1ccn(C2OC(COP(=O)(O)OP(=O)(O)O)C(O)C2O)c(=O)[nH]1` (stereo not drawn) [URIDINE 5'-DIPHOSPHATE], with 15 min.
For `O=C(O)C1OC(OP(=O)(O)OP(=O)(O)OCC2OC(n3ccc(=O)[nH]c3=O)C(O)C2O)C(O)C(O)C1O` (stereo not drawn) [URIDINE DIPHOSPHATE GLUCURONIC ACID], the LC retention time is 15.3 min.
On to `O=c1ccn(C2OC(COP(=O)(O)O)C(O)C2O)c(=O)[nH]1` (stereo not drawn) [URIDINE MONOPHOSPHATE], for which the LC retention time turned out to be 13.9 min.
Then `O=c1ccn(C2OC(CO)C(O)C2O)c(=O)[nH]1` (stereo not drawn) [URIDINE], with 9 min; and `O=C(O)C=Cc1cnc[nH]1` [UROCANATE], with 8.66 min.
Regarding `C=C1CCC(O)CC1=CC=C1CCCC2(C)C1CCC2C(C)C=CC(C)C(C)C` (stereo not drawn) [VITAMIN D2], the LC retention time worked out at 1.55 min.
For `COc1cc(C(=O)O)ccc1O` [Vanillic acid], the LC retention time was 2.08 min.
As to `O=c1[nH]c(=O)c2[nH]cnc2[nH]1` [XANTHINE], the LC retention time is 8.96 min.
As to `O=c1[nH]c(=O)c2ncn(C3OC(COP(=O)(O)O)C(O)C3O)c2[nH]1` (stereo not drawn) [XANTHOSINE-MONOPHOSPHATE], the LC retention time amounted to 14.4 min.
With `O=c1[nH]c(=O)c2ncn(C3OC(CO)C(O)C3O)c2[nH]1` (stereo not drawn) [XANTHOSINE], the LC retention time was 10.4 min.
In the case of `O=C(O)c1cc(=O)c2cccc(O)c2[nH]1` [XANTHURENATE], the LC retention time stood at 10.4 min.
`COC1=C(OC)C(=O)C(CC=C(C)C)=C(C)C1=O` [coenzyme Q1]: the LC retention time was determined as 1.53 min.
Then `COC1=C(OC)C(=O)C(CC=C(C)CCC=C(C)C)=C(C)C1=O` [coenzyme Q2], with 1.52 min; and `Nc1nc2c(ncn2C2CC(O)C(COP(=O)(O)O)O2)c(=O)[nH]1` (stereo not drawn) [dGMP sodium salt hydrate], with 14.4 min; and `Cc1cc(O)cc2c1OC(C)(CCC(=O)O)CC2` (stereo not drawn) [delta CEHC], with 1.87 min.
For `CC(CCC(=O)O)C1CCC2C3CCC4CC(O)CCC4(C)C3CC(O)C12C` (stereo not drawn) [deoxycholic acid], the LC retention time was 1.98 min.
Next, `O=C(O)C=CC(=O)O` [fumaric acid]: 7.45 min.
Then `O=C(O)CCc1ccccc1` [hydrocinnamic acid], with 1.69 min; and `COC(=O)CCCCC(=O)O` [mono-Methyl adipate], with 1.71 min.
With `CC(=O)OC(CC(=O)[O-])C[N+](C)(C)C` (stereo not drawn) [o-acetyl-l-carnitine hydrochloride], the LC retention time was 13 min.
Next, `O=C(O)CCCCCC(=O)O` [pimelic acid]: 2.14 min; `CC(=O)C1CCC2C3CC=C4CC(OS(=O)(=O)O)CCC4(C)C3CCC12C` (stereo not drawn) [pregnenolone sulfate]: 2.05 min; `CC(=O)C(=O)O` [pyruvic acid]: 5.68 min.
Regarding `O=c1c(O)c(-c2ccc(O)c(O)c2)oc2cc(O)cc(O)c12` [quercetine dihydrate], the LC retention time was 2.16 min.
Next, `CC1OC(OCC2OC(Oc3c(-c4ccc(O)c(O)c4)oc4cc(O)cc(O)c4c3=O)C(O)C(O)C2O)C(O)C(O)C1O` (stereo not drawn) [rutin hydrate]: 10.6 min; `O=C(O)CCC(=O)O` [succinic acid]: 2.19 min.
Next, `O=C(O)/C=C/c1c[nH]c2ccccc12` [trans-3-indoleacrylic acid]: 2.04 min.
Turning to `C[N+](C)(C)[O-]` [trimethylamine N-oxide], the LC retention time was 11.9 min.
